Earlier results as cited in PMC7589057, “Synthesis of Hantzsch Adducts as Cholinesterases and Calcium Flux inhibitors, Antioxidants and Neuroprotectives” (International Journal of Molecular Sciences, 2020).
Like-named read-outs stand apart in the source and are kept apart here.

Key:
SH-SY5Y cells [1] = system: SH-SY5Y cells; parameters: method as in PMID 27736061; details: 0.1 µM, cited from earlier work
SH-SY5Y cells [2] = system: SH-SY5Y cells; parameters: method as in PMID 27736061; details: 0.1 µM; cited from earlier work

In the case of `COc1ccc2[nH]cc(CCNC(C)=O)c2c1` [MEL, melatonin], the “O/R (%) neuroprotection” value (SH-SY5Y cells [1]; listed as Melatonin) is given as 66.6 ± 3.01 ***[10] %, the “O/R (%) neuroprotection” value (SH-SY5Y cells [1]; listed as melatonin) is given as 66.6% and the “H2O2 (%) neuroprotection” value (SH-SY5Y cells [2]) is given as 55.4 ± 7.73 *[10] %.
